T/C data for 19 compounds are collected here from PubChem BioAssay AID248 (DTP/NCI, 2004).

The test system of this experiment is L1210 leukemia ip in BDF1 mice, survival T/C. As to the kind of experiment: NCI In Vivo Anticancer Drug Screen. Data for tumor model L1210 Leukemia (intraperitoneal) in B6D2F1 (BDF1) mice. Conditions: endpoint: mean survival time, higher = longer survival. The gist of the method: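 In this screen, tumor-bearing mice given compound are compared to those given vehicle, and their survival values are reported as a treated-to-control quotient.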

Setting [1] is: dose: 100.0 mg/kg/injection, schedule: Q01DX009 (ip), vehicle: Klucel (hydroxypropylcellulose) (HPC).
[2] abbreviates: dose: 100.0 mg/kg/injection, schedule: Q04DX003 (ip), vehicle: Klucel (hydroxypropylcellulose) (HPC).
Where [3] appears, read: dose: 200.0 mg/kg/injection, schedule: Q01DX009 (ip), vehicle: Klucel (hydroxypropylcellulose) (HPC).
Setting [4] is: dose: 200.0 mg/kg/injection, schedule: Q04DX003 (ip), vehicle: Klucel (hydroxypropylcellulose) (HPC).
Where [5] appears, read: dose: 400.0 mg/kg/injection, schedule: Q01DX009 (ip), vehicle: Klucel (hydroxypropylcellulose) (HPC).
Setting [6] is: dose: 400.0 mg/kg/injection, schedule: Q04DX003 (ip), vehicle: Klucel (hydroxypropylcellulose) (HPC).
Setting [7] is: dose: 100.0 mg/kg/injection, schedule: Q01DX009 (ip), vehicle: saline with Tween-80.
Where [8] appears, read: dose: 100.0 mg/kg/injection, schedule: Q04DX003 (ip), vehicle: saline with Tween-80.
Where [9] appears, read: dose: 200.0 mg/kg/injection, schedule: Q01DX009 (ip), vehicle: saline with Tween-80.
Setting [10] is: dose: 200.0 mg/kg/injection, schedule: Q04DX003 (ip), vehicle: saline with Tween-80.
[11] abbreviates: dose: 400.0 mg/kg/injection, schedule: Q01DX009 (ip), vehicle: saline with Tween-80.
Where [12] appears, read: dose: 400.0 mg/kg/injection, schedule: Q04DX003 (ip), vehicle: saline with Tween-80.
[13] abbreviates: dose: 100.0 mg/kg/injection, schedule: Q01DX001 (ip), vehicle: saline.
[14] abbreviates: dose: 200.0 mg/kg/injection, schedule: Q01DX001 (ip), vehicle: saline.
[15] abbreviates: dose: 400.0 mg/kg/injection, schedule: Q01DX001 (ip), vehicle: saline.

“And” between values parts separate entries of the source, which are not always exact repeats. Identical values can stand only once. Inconclusive results and toxic doses are left out.

Regarding `CCCC(=O)c1ccc2oc3ccccc3c2c1`, the T/C was 100 % of control under setting [1]; 102 % of control under setting [2]; 94 % of control under setting [3]; 102 % of control under setting [4]; 96 % of control under setting [5]; 98 % of control under setting [6].
With `COC(=O)c1c2c(nc3ccccc13)-c1ccccc1C(C)(C)C2Br` (stereo unspecified), the T/C by setting is: under setting [2], 95 % of control; under setting [4], 92 % of control; under setting [6], 95 % of control.
`Nc1cc(S(=O)(=O)F)cc(Cl)c1O`: the T/C under setting [1] was 105 % of control and the T/C under setting [3] was 103 % of control.
Take `CN(C)S(=O)(=O)ON1C(=O)c2ccccc2C1=O`: the T/C reads like this: (dose: 75.0 mg/kg/injection, schedule: Q01DX001 (ip), vehicle: other) 103 % of control; (dose: 150.0 mg/kg/injection, schedule: Q01DX001 (ip), vehicle: other) 108 % of control; (dose: 300.0 mg/kg/injection, schedule: Q01DX001 (ip), vehicle: other) 94 % of control.
Regarding `NC(N)=N/N=C/c1ccc(C(=O)O)cc1`, the T/C (dose: 15.0 mg/kg/injection, schedule: Q01DX Z (ip), vehicle: saline) was 103 % of control; the T/C (dose: 30.0 mg/kg/injection, schedule: Q01DX Z (ip), vehicle: saline) was 104 % of control; the T/C (dose: 60.0 mg/kg/injection, schedule: Q01DX Z (ip), vehicle: saline) is 106 % of control; the T/C (dose: 120.0 mg/kg/injection, schedule: Q01DX Z (ip), vehicle: saline) was 110 % of control; the T/C (dose: 120.0 mg/kg/injection, schedule: Q01DX Z (oral), vehicle: saline) is 92 % of control; the T/C (dose: 240.0 mg/kg/injection, schedule: Q01DX Z (ip), vehicle: saline) was 87 % of control. Also, the T/C is, setting by setting: (dose: 240.0 mg/kg/injection, schedule: Q01DX Z (oral), vehicle: saline) 90 % of control; (dose: 480.0 mg/kg/injection, schedule: Q01DX Z (oral), vehicle: saline) 101 % of control; (dose: 960.0 mg/kg/injection, schedule: Q01DX Z (oral), vehicle: saline) 92 % of control.
In the case of `O=C(Nc1ccc(CC2=NCCCN2)cc1)c1ccc(C(=O)Nc2ccc(CC3=NCCCN3)cc2)cc1`, the T/C is, setting by setting: (dose: 0.5 mg/kg/injection, schedule: Q01DX Z (ip), vehicle: water) 95 % of control; (dose: 1.0 mg/kg/injection, schedule: Q01DX Z (ip), vehicle: water) 103 % of control.
Take `S=c1ncn(C2CCCCC2)c(=S)[nH]1`: the T/C was 95 % of control under setting [2] and 102 % of control under setting [6].
`Cc1ccc(S(=O)(=O)N/N=C/c2cccs2)cc1`: the T/C is 90 % of control under setting [7]; 98 % of control under setting [8]; 88 % of control under setting [9]; 98 % of control under setting [10]; 91 % of control under setting [11]; 109 % of control under setting [12].
`COCCNC(=O)SCCC(=O)O`: the T/C by setting is: under setting [13], 96 % of control; under setting [14], 100 % of control; under setting [15], 100 % of control.
Regarding `O=C(O)CC(O)C(Cl)(Cl)Cl` (stereo unspecified), the T/C under setting [13] is 93 % of control, the T/C under setting [14] is 104 % of control and the T/C under setting [15] was 98 % of control.
Turning to `CCOC(=O)c1c(Cl)c(Cl)c(C(=O)OCC)c(Cl)c1Cl`, the T/C (dose: 100.0 mg/kg/injection, schedule: Q01DX009 (ip), vehicle: saline sonified) was 101 % of control; the T/C under setting [2] was 101 % of control; the T/C (dose: 200.0 mg/kg/injection, schedule: Q01DX009 (ip), vehicle: saline sonified) is 97 % of control; the T/C under setting [4] was 95 % of control; the T/C (dose: 400.0 mg/kg/injection, schedule: Q01DX009 (ip), vehicle: saline sonified) is 95 % of control; the T/C under setting [6] is 92 % of control.
For `CCCCOCCOCCOC(C)Oc1ccc(C(=O)OC)cc1` (stereo unspecified), the T/C was 92 % of control (dose: 100.0 mg/kg/injection, schedule: Q04DX002 (ip), vehicle: saline); 99 % of control (dose: 200.0 mg/kg/injection, schedule: Q04DX002 (ip), vehicle: saline); 101 % of control (dose: 400.0 mg/kg/injection, schedule: Q04DX002 (ip), vehicle: saline).
Take `Cc1c(Cl)cccc1NC(=O)N(C)Cc1ccccc1`: the T/C by setting is: (dose: 50.0 mg/kg/injection, schedule: Q01DX009 (ip), vehicle: saline with Tween-80) 109 % of control and 120 % of control; (dose: 100.0 mg/kg/injection, schedule: Q04DX002 (ip), vehicle: saline with Tween-80) 104 % of control and 110 % of control; under setting [8], 97 % of control; (dose: 200.0 mg/kg/injection, schedule: Q04DX002 (ip), vehicle: saline with Tween-80) 100 % of control and 104 % of control; under setting [10], 106 % of control; (dose: 400.0 mg/kg/injection, schedule: Q04DX002 (ip), vehicle: saline with Tween-80) 100 % of control and 103 % of control. For the same compound, the T/C under setting [12] is 101 % of control.
Consider `O=NN(CCCl)C(=O)NC(Cc1ccccc1)C(=O)O` (stereo unspecified), for which the T/C was 118 % of control (dose: 12.0 mg/kg/injection, schedule: Q01DX001 (ip), vehicle: gum acacia); 188 % of control (dose: 28.0 mg/kg/injection, schedule: Q01DX001 (ip), vehicle: gum acacia); 195 % of control (dose: 42.0 mg/kg/injection, schedule: Q01DX001 (ip), vehicle: gum acacia); 256 % of control (dose: 63.0 mg/kg/injection, schedule: Q01DX001 (ip), vehicle: gum acacia); 163 % of control (dose: 112.0 mg/kg/injection, schedule: Q01DX001 (ip), vehicle: gum acacia); 120 % of control (dose: 168.0 mg/kg/injection, schedule: Q01DX001 (ip), vehicle: gum acacia).
`O=[N+]([O-])c1ccc(N=N/C(Cc2ccccc2)=N\Nc2ccccc2)cc1`: the T/C is, setting by setting: (dose: 50.0 mg/kg/injection, schedule: Q01DX009 (ip), vehicle: Klucel (hydroxypropylcellulose) (HPC)) 90 % of control; under setting [1], 95 % of control; under setting [2], 87 % of control; under setting [3], 92 % of control; under setting [4], 100 % of control; under setting [5], 90 % of control. For the same compound, the T/C under setting [6] was 101 % of control.
As for `Nc1ncnc2c1ncn2C(/C=N/Nc1ccccc1)OC(/C=N\Nc1ccccc1)CO` (stereo unspecified), the T/C is, setting by setting: (dose: 100.0 mg/kg/injection, schedule: Q01DX001 (ip), vehicle: other) 106 % of control; (dose: 200.0 mg/kg/injection, schedule: Q01DX001 (ip), vehicle: other) 108 % of control.
`O=C(Nc1ccccc1)Nc1ccc(F)cc1`: the T/C was 100 % of control under setting [7]; 101 % of control under setting [8]; 94 % of control under setting [9]; 99 % of control under setting [10]; 96 % of control under setting [11]; 105 % of control under setting [12].
As for `Cc1[nH]ccc2c(C)c3nc4ccccc4c3cc12`, the T/C runs as follows: (dose: 2.5 mg/kg/injection, schedule: Q01DX Z (ip), vehicle: carboxymethylcellulose (CMC)) 110 % of control; (dose: 5.0 mg/kg/injection, schedule: Q01DX Z (ip), vehicle: carboxymethylcellulose (CMC)) 114 % of control; (dose: 29.0 mg/kg/injection, schedule: Q04DX003 (ip), vehicle: saline with Tween-80) 122 % of control; (dose: 40.0 mg/kg/injection, schedule: Q01DX Z (ip), vehicle: saline) 151 % of control; (dose: 50.0 mg/kg/injection, schedule: Q01DX001 (ip), vehicle: saline) 98 % of control; (dose: 75.0 mg/kg/injection, schedule: Q01DX Z (ip), vehicle: saline) 110 % of control. Besides, the T/C was 112 % of control under setting [13]; 92 % of control (dose: 100.0 mg/kg/injection, schedule: Q01DX Z (ip), vehicle: saline); 165 % of control under setting [8]; 153 % of control (dose: 150.0 mg/kg/injection, schedule: Q04DX003 (ip), vehicle: saline with Tween-80); 110 % of control under setting [14]; 122 % of control under setting [15].
Take `CC(C)CCCC(C)C1CCC2C3CC=C4CC(S)CCC4(C)C3CCC12C` (stereo unspecified): the T/C by setting is: (dose: 60.0 mg/kg/injection, schedule: Q04DX003 (sc), vehicle: steriod suspending solution) 100 % of control; (dose: 120.0 mg/kg/injection, schedule: Q04DX003 (sc), vehicle: steriod suspending solution) 109 % of control; (dose: 240.0 mg/kg/injection, schedule: Q04DX003 (sc), vehicle: steriod suspending solution) 105 % of control.
